According to patent US20170304236A1, “ANTIALLERGIC AGENT” (TOHOKU UNIVERSITY, priority 2015, published 2017):

Columns and labels:
TSLP [1] = test: OVA air pouch model in ICR mouse; type: in vivo
Description: 500 μl of air was subcutaneously injected into the back of an ICR mouse (6-week-old, male, SLC) to form an air pouch (day 1). Further, 500 μl each of air was injected into the air pouch on day 2, day 5, and day 7. 24 hours after that, 300 μl of a solution prepared by dissolving ovalbumin (OVA) at 100 μg/0.3 ml in 2% (w/v) CMC-Na physiological saline that had been subjected to high-pressure steam sterilization and further dissolving penicillin G potassium and streptomycin sulfate at 0.1 mg/ml each therein was injected into the air pouch to induce inflammation. […]
8 hours after the administration of the solution into the air pouch, the mouse was killed through blood removal by cutting the carotid artery under anesthesia. 300 μl of physiological saline was injected into the air pouch so as to be mixed with air pouch internal fluid, and then the air pouch internal fluid was collected and its weight was measured. Its TSLP concentration was measured with Mouse TSLP DuoSet (trademark) ELISA (R&D Systems) in accordance with an accompanying protocol. 14 days after the administration of the solution into the air pouch, blood was collected, and the amount of OVA-specific IgE in serum was measured with an ELISA kit (Anti-ovalbumin IgE (mouse) EIA kit (Cayman 500840)).

TSLP [2] = test: LPS-induced air pouch inflammation in Balb/c mouse; type: in vivo; settings: 8 hours after administration into the air pouch
Description: 500 μl of air was subcutaneously injected into the back of a Balb/c mouse (6-week-old, male, SLC) to form an air pouch (day 1). Further, 500 μl each of air was injected into the air pouch on day 2, day 5, and day 7. 24 hours after that, 300 μl of a solution prepared by dissolving LPS at 10 ng/ml in 2% (w/v) CMC-Na physiological saline that had been subjected to high-pressure steam sterilization and further dissolving penicillin G potassium and streptomycin sulfate at 0.1 mg/ml each therein was injected into the air pouch to induce inflammation. […]
8 hours after the administration of the solution into the air pouch, the mouse was killed through blood removal by cutting the carotid artery under anesthesia. 300 μl of physiological saline was injected into the air pouch so as to be mixed with air pouch internal fluid, and then the air pouch internal fluid was collected and its weight was measured. An infiltrating leukocyte count was measured with a hemocytometer after the collected air pouch internal fluid had been diluted with physiological saline as appropriate. […] The supernatant was collected, and its TSLP concentration was measured with Mouse TSLP DuoSet (trademark) ELISA (R&D Systems) in accordance with an accompanying protocol. […]

TSLP [3] = test: TSLP production in KCMH-1 cells (ELISA); type: cell-based, mouse; settings: 24 hours, culture supernatant
Description: KCMH-1 cells (J. Immunol. Methods 402: 9-14 (2013)) were suspended in 10% FBS-containing MEM-α at 1.0×10^5 cells/mL.
The culture supernatant was collected, and a TSLP amount was measured with Mouse TSLP DuoSet (trademark) ELISA (R&D Systems).

NF-κB [4] = test: NF-κB luciferase reporter assay in HaCaT cells; type: cell-based, human; settings: TNF-α 100 ng/ml, 2 hours, 16D10 10 or 100 μM, TPCA-1 10 μM
Description: The transfection of Path Detect pNF-κB-Luc Plasmid (Stratagane) was performed with X-tremeGENE HP DNA Transfection Reagent in accordance with an accompanying protocol. Human keratinocyte HaCaT cells were seeded at 0.65×10^5 cells/ml into a 12-well plate (Falcon (trademark)), and cultured for 24 hours. […], first, to 50 μl of Opti-MEM at from 15° C. to 25° C., a 500 ng/μl reporter plasmid solution and a 100 ng/μl pGL4.74[hRluc/TK] Vector solution were added at 1 μl each. Next, 1. 5 μl of X-tremeGENE HP DNA Transfection Reagent was added, and the contents were lightly mixed by inversion and then left to standstill at room temperature for 15 minutes to form a transfection complex. Further, the culture supernatant was removed from the cells that had been cultured for 24 hours, and the cells were washed with PBS. After that, 950 μl of 10% FBS-containing MEMα was added to each well. […]
(§1) The measurement of luciferase activity was performed with Dual-Luciferase (trademark) Reporter Assay System in accordance with an accompanying protocol. […] Immediately after that, a Firefly luciferase luminescence integrated value for 10 seconds was calculated with AB-2200-R Luminescencer PSN (ATTO Corporation). After that, 50 μl of Stop&Glo reagent was added and the contents were lightly mixed, and then a Renilla luciferase luminescence integrated value for 10 seconds was measured.

TSLP mRNA = TSLP mRNA expression in stimulated HaCaT cells (real-time PCR); type: cell-based, human; settings: 16D10 10 and 100 μM, 4 hours
From the text: […] […] Forward: [NT], Reverse: [NT] rRNA forward: [NT], Reverse: [NT].

NF-κB [5] = test: NF-κB luciferase reporter assay in KCMH-1 cells; type: cell-based, mouse; settings: 16D10 10 μM
Description: The transfection of Path Detect pNF-κB-Luc Plasmid (Stratagane) was performed with X-tremeGENE HP DNA Transfection Reagent in accordance with an accompanying protocol. Mouse keratinocyte KCMH-1 cells were seeded at 1×10^5 cells/ml into a 12-well plate (Falcon (trademark)), and cultured for 24 hours. The following day, first, to 50 μl of Opti-MEM at from 15° C. to 25° C., a 500 ng/μl reporter plasmid solution and a 100 ng/μl pGL4.74 [hRluc/TK] Vector solution were added at 1 μl each. Next, 1.5 μl of X-tremeGENE HP DNA Transfection Reagent was added, and the contents were lightly mixed by inversion and then left to stand still at room temperature for 15 minutes to form a transfection complex. Further, the culture supernatant was removed from the cells that had been cultured for 24 hours, and the cells were washed with PBS. After that, 950 μl of 10% FBS-containing MEMα was added to each well. […]
as §1

TSLP [6] = test: TSLP production by TNF-α stimulation in PAM212 cells (ELISA); type: cell-based, mouse; settings: TNF-α 30 ng/ml, 16D10 1, 3 and 10 μM, 48 hours
Description: After the culture, TSLP in the culture solution was measured by EILSA.

IKK, IκB, STAT6 = test: Western blot of NF-κB-activating signal and STAT6 phosphorylation in HaCaT cells; type: cell-based, human; settings: 10 minutes; for TNF-α+IL-4 stimulation-induced increase in phosphorylation of IKK / TNF-α+IL-4 stimulation-induced reduction in inhibitory protein IκB of NF-κB: 16D10 100 μM
various kinases = test: Off-chip Mobility Shift Assay kinase panel (Carna Biosciences); type: biochemical; settings: 16D10 at 10 μM
Description: Carna Biosciences, Inc. was entrusted to measure the effect of the test compound 16D10 at 10 μM on the activity of each kinase by Off-chip Mobility Shift Assay (MSA) described on the website of Carna Biosciences, Inc. (http://www.carnabio.com/output/pdf/ProfilingProfilingBook_ja. pdf). Specifically, the measurement was performed by the following method.
The test compound is dissolved in and diluted with DMSO to a 100-fold concentration. Then, the solution is diluted 25-fold with assay buffer to prepare a test compound solution. A control is similarly prepared.
(1) […] of a 4-fold compound solution, 5 mL of a 4-fold Substrate/ATP/Metal solution, and […] of a 2-fold kinase solution are prepared with assay buffer (20 mM HEPES, 0.01% Triton X-100, 2 mM DTT, pH 7.5), and are mixed and incubated in a polypropylene 384-well plate at room temperature for from 1 hour or 5 hours* (*the reaction time is set depending on the kinase); (2) […] of termination buffer (QuickScout Screening Assist MSA; Carna Biosciences) is added to each well; (3) the reaction mixture is applied to a LabChip™ system (PerkinElmer), and the peaks of a product and a substrate peptide are separated and quantified; and (4) a kinase reaction is evaluated on the basis of a product ratio (P/(P+S)) calculated from the peak heights of the product (P) and the substrate (S) peptide.

Row | SMILES | OVA-specific IgE in serum (TSLP [1]; 14 days after administration into the air pouch) | TSLP production by OVA (TSLP [1]; air pouch internal fluid, 8 hours after administration) | TSLP concentration in air pouch internal fluid (TSLP [2]) | infiltrating leukocyte count (TSLP [2]) | TSLP production-suppressing ability (TSLP [3]) | transcriptional activity of NF-κB (NF-κB [4]) | expression of TSLP mRNA (TSLP mRNA; Poly(I:C) 50 μg/ml stimulation) | expression of TSLP mRNA (TSLP mRNA; TNF-α 100 ng/ml stimulation) | transcriptional activity of NF-κB (NF-κB [5]; KCMH-1 cells, 24 hours) | TSLP production (NF-κB [5]; KCMH-1 mouse keratinocyte cell line) | TSLP production by TNF-α (TSLP [6]) | TNF-α+IL-4 stimulation-induced increase in phosphorylation of IKK (IKK, IκB, STAT6) | TNF-α+IL-4 stimulation-induced reduction in inhibitory protein IκB of NF-κB (IKK, IκB, STAT6) | increase in phosphorylation of STAT6 by stimulation (IKK, IκB, STAT6; TNF-α + IL-4, 16D10 100 μM) | activity of each kinase (various kinases)
1 | COc1ccc(OC)c(/C=C/C(=O)c2cc(OC)c(OC)cc2CCNC(C)=O)c1 [16D10, (E)-N-[2-[2-[3-(2,5-dimethoxyphenyl)-1-oxo-2-propen-1-yl]-4,5-dimethoxyphenyl]ethyl]acetamide] | suppressed the production of OVA-specific IgE | significantly suppressed TSLP production by OVA | significantly suppressed TSLP production | did not reduce infiltrating leucocytes | extremely high TSLP production-suppressing ability | did not suppress the activity | suppressed | suppressed | without suppressing the transcriptional activity of NF-κB | suppressed TSLP production | suppressed TSLP production by TNF-α in a concentration-dependent manner | not suppressed | not suppressed | did not suppress | did not suppress the activity of each kinase analyzed
2 | NC(=O)Nc1sc(-c2ccc(F)cc2)cc1C(N)=O [TPCA-1, [5-(p-Fluorophennyl)-2-ureido]thiophene-3-carboxamide, reference compound] |  |  |  |  |  | suppressed the transcriptional activity of NF-κB |  |  |  |  |  | suppressed | suppressed |  | 
